Experimental data taken from ChEMBL document CHEMBL4354805, “Discovery of MK-8719, a Potent O-GlcNAcase Inhibitor as a Potential Treatment for Tauopathies” (J Med Chem, 2019).

Legend:
Cytochrome P450 2B6 = target: T1, Cytochrome P450 2B6 (Homo sapiens, UniProt P20813); assay: Induction of CYP2B6 in human hepatocytes upto 20 uM; assay type: ADME, cell-based
T1 sequence (P20813 whole entry): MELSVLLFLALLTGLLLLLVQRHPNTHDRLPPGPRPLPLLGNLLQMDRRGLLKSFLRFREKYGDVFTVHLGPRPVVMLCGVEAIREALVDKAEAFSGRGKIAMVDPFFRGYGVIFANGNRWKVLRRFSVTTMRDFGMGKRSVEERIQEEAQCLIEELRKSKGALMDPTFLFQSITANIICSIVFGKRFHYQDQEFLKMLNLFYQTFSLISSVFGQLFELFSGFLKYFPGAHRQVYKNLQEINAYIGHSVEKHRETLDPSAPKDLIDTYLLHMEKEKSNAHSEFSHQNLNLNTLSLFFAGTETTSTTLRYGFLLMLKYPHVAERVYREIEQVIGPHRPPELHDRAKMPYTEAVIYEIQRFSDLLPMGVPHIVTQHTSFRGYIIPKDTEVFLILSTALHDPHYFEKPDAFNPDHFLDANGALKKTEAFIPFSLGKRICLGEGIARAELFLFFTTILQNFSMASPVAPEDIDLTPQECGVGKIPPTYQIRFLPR

Protein O-GlcNAcase = target: T2, Protein O-GlcNAcase (Homo sapiens, UniProt O60502); assay: Inhibition of recombinant human OGA
T2 sequence (O60502 whole entry): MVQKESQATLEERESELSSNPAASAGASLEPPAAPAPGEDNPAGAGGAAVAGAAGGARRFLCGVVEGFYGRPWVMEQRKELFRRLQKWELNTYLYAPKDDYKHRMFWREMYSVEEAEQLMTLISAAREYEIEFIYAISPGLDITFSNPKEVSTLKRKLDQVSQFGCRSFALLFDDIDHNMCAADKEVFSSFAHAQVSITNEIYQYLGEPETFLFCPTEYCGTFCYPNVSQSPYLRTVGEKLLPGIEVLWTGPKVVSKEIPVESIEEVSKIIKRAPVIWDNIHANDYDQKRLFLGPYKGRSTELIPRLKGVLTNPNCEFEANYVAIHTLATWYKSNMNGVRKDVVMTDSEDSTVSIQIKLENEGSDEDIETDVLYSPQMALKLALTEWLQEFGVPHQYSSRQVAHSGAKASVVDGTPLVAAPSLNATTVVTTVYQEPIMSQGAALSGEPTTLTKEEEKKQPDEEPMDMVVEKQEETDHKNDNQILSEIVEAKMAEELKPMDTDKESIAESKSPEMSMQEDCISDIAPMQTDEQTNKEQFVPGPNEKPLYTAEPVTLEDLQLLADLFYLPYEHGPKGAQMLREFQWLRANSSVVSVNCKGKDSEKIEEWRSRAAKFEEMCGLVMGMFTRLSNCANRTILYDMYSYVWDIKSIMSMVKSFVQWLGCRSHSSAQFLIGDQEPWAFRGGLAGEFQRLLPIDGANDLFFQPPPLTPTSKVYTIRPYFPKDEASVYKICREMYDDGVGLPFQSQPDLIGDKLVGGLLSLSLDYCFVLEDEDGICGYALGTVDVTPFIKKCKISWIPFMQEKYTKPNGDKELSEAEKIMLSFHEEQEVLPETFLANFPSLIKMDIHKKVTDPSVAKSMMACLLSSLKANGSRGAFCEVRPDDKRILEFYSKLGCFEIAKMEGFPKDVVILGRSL

[1] = Tmax in rat brain at 10 mg/kg, po measured upto 24 hrs; assay type: ADME, organism-based
Rattus norvegicus = assay: Hemodynamic activity in telemetered rat at 380 mg/kg, po; assay type: ADME, organism-based; details: in vivo
[2] = Stability in human hepatocytes assessed as parent compound remaining at 10 uM incubated for 120 mins; assay type: ADME, cell-based, Hepatocyte; details: read-out: Stability
IKs (KCNQ1) = target: T3, IKs (KCNQ1) (Homo sapiens, UniProt P51787); assay: Inhibition of IKs (unknown origin) at 30 uM
T3 sequence (P51787 whole entry): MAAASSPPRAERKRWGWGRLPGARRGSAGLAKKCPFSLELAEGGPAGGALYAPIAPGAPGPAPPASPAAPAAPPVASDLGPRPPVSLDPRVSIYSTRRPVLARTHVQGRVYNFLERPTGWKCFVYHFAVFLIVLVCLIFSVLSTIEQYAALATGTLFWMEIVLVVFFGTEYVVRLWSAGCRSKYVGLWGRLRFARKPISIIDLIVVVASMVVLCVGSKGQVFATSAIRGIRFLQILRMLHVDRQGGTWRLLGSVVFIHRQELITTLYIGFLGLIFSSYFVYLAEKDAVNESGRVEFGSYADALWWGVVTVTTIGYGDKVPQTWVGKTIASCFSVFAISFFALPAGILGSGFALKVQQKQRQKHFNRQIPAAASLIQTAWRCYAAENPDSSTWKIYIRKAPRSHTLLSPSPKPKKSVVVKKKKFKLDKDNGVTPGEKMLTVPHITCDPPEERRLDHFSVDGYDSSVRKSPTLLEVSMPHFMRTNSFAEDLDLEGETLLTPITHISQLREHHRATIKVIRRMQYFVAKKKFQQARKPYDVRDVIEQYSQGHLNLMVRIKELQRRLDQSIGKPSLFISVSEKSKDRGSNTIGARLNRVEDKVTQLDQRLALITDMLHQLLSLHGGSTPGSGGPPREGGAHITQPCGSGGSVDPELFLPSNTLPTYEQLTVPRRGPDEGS

[3] = AUCN in rhesus monkey at 3 mg/kg, po; assay type: ADME, organism-based, Macaca mulatta; details: in vivo
[4] = Protein binding in human plasma; assay type: ADME, cell-free; details: read-out: PPB
[5] = Volume of distribution at steady state in Beagle dog at 1 mg/kg, iv or 3 mg/kg, po; assay type: ADME, organism-based, Canis lupus familiaris; details: in vivo, read-out: Vdss
[6] = Clearance in rhesus monkey at 1 mg/kg, iv; assay type: ADME, organism-based, Macaca mulatta; details: in vivo
Cytochrome P450 3A4 = Cytochrome P450 3A4 (Homo sapiens, UniProt P08684); assay: Induction of CYP3A4 in human hepatocytes upto 20 uM; assay type: ADME, cell-based
Cytochrome P450 3A4, sequence (P08684 whole entry): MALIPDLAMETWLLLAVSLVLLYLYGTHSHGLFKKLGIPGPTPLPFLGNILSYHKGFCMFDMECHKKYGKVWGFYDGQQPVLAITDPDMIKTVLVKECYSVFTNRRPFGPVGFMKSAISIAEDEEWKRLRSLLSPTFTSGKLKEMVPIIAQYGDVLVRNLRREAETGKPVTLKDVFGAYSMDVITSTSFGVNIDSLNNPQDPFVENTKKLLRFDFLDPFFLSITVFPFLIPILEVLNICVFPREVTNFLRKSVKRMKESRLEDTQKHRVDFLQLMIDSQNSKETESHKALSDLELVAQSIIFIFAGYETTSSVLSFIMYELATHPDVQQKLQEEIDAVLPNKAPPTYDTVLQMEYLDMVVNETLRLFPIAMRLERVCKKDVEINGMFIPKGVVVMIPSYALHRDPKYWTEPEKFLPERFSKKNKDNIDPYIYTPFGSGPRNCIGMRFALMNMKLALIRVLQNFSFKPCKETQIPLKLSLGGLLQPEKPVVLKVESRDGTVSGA

[7] = Ratio of drug level in monkey blood to plasma; assay type: ADME, cell-free, Macaca mulatta; details: rhesus monkey, whole blood
[8] = Ratio of drug level in dog blood to plasma; assay type: ADME, cell-free, Canis lupus familiaris; details: whole blood

## CCNC1=N[C@@H]2[C@@H](O)[C@H](O)[C@@H](C(F)F)O[C@@H]2S1
Cytochrome P450 2B6
  Activity: Not Active
Protein O-GlcNAcase
  Ki: 7.9 nM
[1]
  Tmax: 8 h
Rattus norvegicus
  Activity: Non-Toxic
[2]
  remaining at 2 h, 10 µM: 90%
IKs (KCNQ1)
  inhibition at 30 µM: < 50%
[3]
  AUC/dose: 0.61 µM·kg·h/mg
[4]
  fraction unbound: > 0.95
[5]
  Vd: 2.4 L/kg
[6]
  clearance: 26.7 mL/min/kg
Cytochrome P450 3A4
  Activity: Not Active
[7]
  blood plasma ratio: 0.9 to 1.1
[8]
  blood plasma ratio: 0.9 to 1.1
